How the values were obtained:
Format in all cases: physicochemical
[1] = Stability constants of Zn(II) complexes by pH-potentiometry; details: I = 0.15 M NaCl, 25 °C
Procedure: (§1) Metal stock solutions were prepared from the highest analytical grade chemicals, and their concentration was determined by complexometric titration with standardized Na2H2EDTA, using xylenol orange indicator in the presence of urotropine buffer (ZnCl2 and MnCl2); Eriochrome black T indicator in the presence of ammonium acetate buffer (CaCl2) or murexide indicator in ammonium solution (CuCl2). The concentration of the ligand stock solutions was determined by pH-potentiometric titrations (the difference between two consecutive inflection points of the ligand titration curve corresponds to two (L2) or one (L3) ligand equivalents). To determine the protonation constants of the ligand and stability constants of the metal complexes with selected divalent metal ions, pH-potentiometric titrations were carried out with 0.1 M NaOH at 2 mM ligand concentration, in the absence (for ligand protonation constants) or in the presence of one equivalent of metal ion (for stability constants). During the titration, the waiting time was 2 min between successive points (V0 = 5 mL). The temperature (25.0 ± 0.1 °C) was controlled by a circulating water bath. The ionic strength was set to I = 0.15 M NaCl. All titrations were performed under a nitrogen atmosphere to avoid the effect of CO2. Titrations were carried out in the pH range from 1.8 (L3) or 2.0 (L2) (after the addition of 1 M HCl solution to the starting ligand solution in the titration cell) to pH 11 (or until precipitation of the metal hydroxide). All pH-potentiometric titrations were performed using a 785 DMP Titrino titration workstation with a combined electrode (Metrohm). The p[H] (p[H] = −log[H+], concentration in molarity) was measured in each titration with a combined pH glass electrode (Metrohm) filled with 3 M KCl. The electrode was calibrated in hydrogen ion concentration by titration of HCl with KOH in 0.1 M electrolyte solution.[37] A plot of potential versus p[H] allows determination of the electrode standard potential (E°) and the slope factor (f).
(§2) The protonation constants of the ligand (log Ki^H) are defined as follows [drawing 1] where i = 1, 2, ··· and [Hi–1L] and [H^+] are the equilibrium concentrations of the ligand (i = 1), its protonated forms (i = 2, ···), and the hydrogen ion. The stability (KML) and the protonation (KMHiL) constants for the metal complexes are defined as follows [drawing 2] [drawing 3] For the calculations of the equilibrium constants, the HYPERQUAD program was used.[38] The number of fitted data pairs was between 190 and 240. The ionic product of water at 25 °C and 0.1 M ionic strength is pKw = 13.77.[39] Fixed values were used for pKw, ligand acidity constants, and total concentrations of metal, ligand, and acid. All values and errors (one standard deviation) reported are at least the average of two independent experiments.

[2] = Stability constants of Mn(II) complexes by pH-potentiometry, pMn and species distribution; details: for log KML / log KML(OH): Mn(II), I = 0.15 M NaCl, 25 °C; for pMn: pMn = −log[Mn(II)]free at pH 7.4, cMn = clig = 10^–5 M
Procedure: as §1, §2
To obtain further information about the impact of a given pendant arm, it is interesting to calculate pMn values (pMn = −log[Mn(II)]free at pH 7.4, cMn = clig= 10^–5 M) which provide a more direct comparison of MnL stabilities, independently of differences in protonation constants (Table 4). […] Nevertheless, the too large, 15-membered macrocyclic cavity combined with a lower number of pendant arms provide ca. 2 orders of magnitude lower stability for Mn(II) complexation as compared to the 12-membered pyclen derivatives (Table 4).

[3] = Stability constants of Cu(II) complexes by pH-potentiometry; details: I = 0.15 M NaCl, 25 °C
Procedure: as §1, §2

[4] = Ligand protonation constants by pH-potentiometric titration; details: I = 0.15 M NaCl; 25 °C
Procedure: as §1
as §2, with “All values and errors (one standard deviation) reported are at least the average of two independent experiments.” left out

[5] = Stability constants of Ca(II) complexes by pH-potentiometry; details: I = 0.15 M NaCl, 25 °C
Procedure: as §1, §2

[6] = Dissociation kinetics of Mn(II) complexes, transmetalation with Zn(II) (T2 relaxation); details: Zn(II) transmetalation, 25 °C, 0.15 M NaCl, pH 4.9–6.0
Procedure: The transmetalation reaction of MnL2 and MnL3 (1.4 mM) was monitored in the presence of 10, 20, 30, and 40 mol equiv of Zn(II) ions, by measuring water proton T2 relaxation times (60 MHz) as a function of time at 25 °C and in 0.15 M NaCl, in the pH range 4.9–6.0 (4.9, 5.0, 5.2, 5.5, and 6.0). To control pH, 50 mM N-methyl-piperazine (pH 4.9–5.5) or 50 mM MES (2-(4-morpholino)ethane-sulfonic acid) buffer (pH 5.7–6.0) was used. Transmetalation of MnL2 (0.3 mM) was also investigated in the presence of 10, 20, 30, and 40 mol equiv of Cu(II) ions, by monitoring the UV–vis absorbance at 274.0 nm as a function of time at 25 °C and in 0.15 M NaCl, in the pH range 4.7–5.0 (in 75 mM 1,4-dimethyl piperazine (DMP) buffer). No oxidation of the samples was observed. The program OriginPro 9 was used for the fitting of experimental data.
The dissociation kinetics was followed through monitoring Mn(II) release by water proton T2 measurements, at pH […], in the presence of 10- to 40-fold excess of Zn(II) and through UV–vis measurements in the presence of 10- to 40-fold excess of Cu(II) at pH 4.7–5.0 (only for MnL2). The observed dissociation rate constants, kobs, increase with increasing H^+ ion concentration (Figures 4, left and S20). They remain independent of Zn(II) concentration (Figures S18 and S19), but do show dependence on Cu(II) concentration (Figure S21).
In excess of the exchanging metal ion, the reaction is of pseudo-first order, and the rate is proportional to the total MnL2 or MnL3 concentration (eq 1), where kobs is the pseudo-first-order rate constant. [drawing 4] 1 In general, different dissociation pathways can coexist, implying the participation of protons and/or the exchanging metal ion,[47] as illustrated in Figure 5.
Based on this scheme, the overall rate for either Zn(II) or Cu(II) transmetalation can be given by eq 2, where M = Zn^2+ or Cu^2+ (for clarity, charges of the complexes are omitted). [drawing 5] 2 Here, the first and second terms correspond to the spontaneous dissociation of the nonprotonated and the monoprotonated complexes, respectively, the third term describes the proton-assisted dissociation of the monoprotonated complex, and the last two terms refer to the spontaneous dissociation of the dinuclear complex and metal-assisted dissociation of the monoprotonated MnL2 or MnL3 complex. [MnL]tot describes the total concentration of Mn(II) chelates ([MnL]tot = [MnL] + [MnHL] + [ZnLMn]). Since no obvious Zn(II) dependence (for any of the two systems) was observed, only the spontaneous and proton-assisted dissociation pathways were taken into consideration. Consequently, the observed rate constants can be expressed as in eq 3 with k0 = kMnL, k1 = kMnHL·KMnHL, and k2 = ^HkMnHL·KMnHL. [drawing 6] 3 The kobs rate constants were fitted to eq 3, and the calculated parameters are listed in Table 5 for the Zn(II) exchange. During the fitting procedure, KMnHL was fixed to the value obtained from the pH-potentiometric titrations.

SMILES: c1cc2nc(c1)CN(Cc1nc3ccccc3[nH]1)CCOCCOCCNC2 [L3]
- log KHML [1]: 2.09(6)
- log KML [1]: 12.09(1)
- log KML(OH) [1]: -9.33(2)
- log KML [2]: 9.74(1)
- log KML(OH) [2]: -9.78(1)
- pMn [2]: 6.80
- log KHML [3]: 2.1(4)
- log KML [3]: 16.91(2)
- log KML(OH) [3]: -7.9(1)
- log K2^H [4]: 5.85(1)
- log K3^H [4]: 1.98(1)
- log KHML [5]: 6.72(6)
- log KML [5]: 3.53(1)
- log KML(OH) [5]: -10.93(1)
- k0 (spontaneous dissociation of the nonprotonated complex) [6]: (1.9 ± 0.3) × 10^–3 s^–1
- k1 (spontaneous dissociation of the monoprotonated complex) [6]: 912 ± 41 M^–1 s^–1

SMILES: c1ccc(CN2CCOCCOCCNCc3cccc(n3)C2)nc1 [L2]
- log KHML [1]: 2.99(2)
- log KML [1]: 13.36(1)
- log KML(OH) [1]: -10.97(2)
- log KML [2]: 10.25(1)
- log KML(OH) [2]: -10.89(3)
- pMn [2]: 6.93
- log KML [3]: 16.57(8)
- log KML(OH) [3]: -10.78(8)
- log K2^H [4]: 7.14(1)
- log K3^H [4]: 2.1(1)
- log KH2ML [5]: 6.63(9)
- log KHML [5]: 7.23(7)
- log KML [5]: 4.11(4)
- k0 (spontaneous dissociation of the nonprotonated complex) [6]: (1.1 ± 0.3) × 10^–3 s^–1
- k1 (spontaneous dissociation of the monoprotonated complex) [6]: 737 ± 110 M^–1 s^–1
- k2 (proton-assisted dissociation of the monoprotonated complex) [6]: (4.5 ± 0.8) × 10^7 M^–2 s^–1

Reference: publication PMC12042267, “Expanding the Family of Monosubstituted 15-Membered Pyridine-Based Macrocyclic Ligands for Mn(II) Complexation in the Context of MRI” (Inorganic Chemistry, 2025)
